Assay results reported in patent publication US20240140953A1, “INHIBITORS OF MENIN-MLL INTERACTION” (BIOMEA FUSION, INC., priority 2018, published 2024).
Read-outs that look alike come from different tables or passages of the source.

Tests used:
MOLM-13 (MLL-AF9) [1] = experiment: Proliferation study, CellTiterGlo, 4 days (Example 102), MOLM-13; type: cell-based, human; settings: MOLM-13, 4 days treatment
Description: (§1) The objective of the study was to evaluate the ability of representative compounds of the present invention, inhibitors of Menin/MLL interaction to inhibit cell proliferation. The proliferation inhibitory effect was investigated in two human MLL-leukemia cells selected on the bases of MLL fusion protein and listed in Table 102. HL-60 cell line was used as negative control.
(§2) ATP is present in all metabolically active cells and is considered as a marker for cell viability and proliferation. The metabolic cell activity was determined using the CellTiter-Glo kit from Promega, an ATP monitoring system based on the production of luminescence by the reaction of ATP with added UltraGlo® recombinant luciferase (Kawano et al., 2016), according to the supplier's experimental recommendations.
(§3) The described assay evaluates the ability of 4 representative compounds to inhibit the cell proliferation in the human MLL-leukemia cells plus a negative control cell line.
(§4) The assay provides potency values (IC50) for each test compound at a single time point Day 4 (T4).
(§5) Seven concentrations of the compounds (2.00E-05-6.67E-06-2.22E-06-7.41E-07-2.47E-07-8.23E-08-2.74E-08M), were assessed in duplicate in an individual test occasion in all the cell lines. MI-503 (Borkin et al., 2015) was used as reference compound and was tested at the same concentrations as the NCEs. 100% of proliferation is represented by the untreated cells (0.2% DMSO). The cell growth was monitored up to 4 days in culture.
(§6) MV4-11, MOLM-13 and HL-60 cells (see Table 2) were maintained in RPMI-1640 medium (Invitrogen, Cat. n. 618700, Batch n. 1965930) supplemented with 10% of Heat Inactivated FBS (Invitrogen, Cat n. 10500, Batch n. 08Q8078K) and 1% Pen-Strep (Invitrogen, Cat. N. 15140, Batch n. 1910859) and cultured at 37° C. in a humidified incubator with 5% CO2. All the cell lines grow in suspension and the cell density was maintained in a range of 2×10^5-1×10^6 viable cells/ml. Cells were pelleted at 130 g×5 min and conditioned medium was used to dilute the cell suspension.
(§7) Test items were dissolved in glass vials at 10 mM in DMSO with purity ≥99.9% (Sigma, D8418, batch n. SHBH4245V) and stored at −20° C. in 1.5 mL Eppendorf tubes.
(§8) Serial dilutions 1 to 3 in DMSO 100% were prepared starting from a 10 mM stock solutions to generate 7 points concentration response curve (CRC).
(§9) For each plate to test, one 0.4 μL copy plate and four 0.3 μL copy plates were then stamped into 96-well plates not treated for cell adhesion (Sarstedt—cat.no. 82.1581.001) by acoustic liquid Handling, Echo, at a concentration which was 500 fold the final assay concentration. Stamped plates were stored at −20° C. The final concentrations for the reference compound, MI-503, and the test items were: 2.00E-05, 6.67E-06, 2.22E-06, 7.41E-07, 2.47E-07, 8.23E-08 and 2.74E-08 M.
(§10) Cells were plated in 96-well flat bottom microtiter plates at cell density of 15,000 cells/ml for HL-60, 1000 cells/ml for MOLM-13 and 10,000 cell/ml for MV4-11. Cells were treated with 0.2% DMSO (Sigma, D8418, batch n. SHBH4245V) or serial dilutions of compounds (0.027 μM-20 μM) in DMSO (0.2% final concentration). Cells were incubated in a 5% CO2 incubator at 37° C. for 4 days. A CellTiterGlo viability assay (Promega) was employed. Luminescence was read by using VictorV (Perkin Elmer) multilabel plate reader using the standard protocol for luminescence in 96 well plate. The experiment was performed in duplicate.
(§11) Data were expressed as % of inhibition compared to the 0.2% DMSO negative control, and was calculated as follows: […]
(§12) CRCs were analysed by GraphPad and IC50 values were calculated by non-linear regression using 4 parameter-logistic equation. IC50 (μM) values were reported in the final data table. The curve fittings were performed leaving free all the parameters. Any constrain were reported in the results table.

RS4-11 (MLL-AF4) = experiment: LTP assay, CellTiterGlo, T4-T14 (Example 103), RS4-11; type: cell-based; settings: for inhibition of cell viability (in words): RS4;11, LTP assay; for IC50: Homo sapiens
Description: (§13) The day of the experiment (T0) all the cell line suspensions were counted by Cell Viability Analyser, Vi-CELL and properly diluted with fresh medium to obtain the cell density reported in the Test System paragraph.
(§14) Cells were tested after 4 passages after thawing.
(§15) 200 μL/well and 150 μL/well of cell suspension were added into the 0.4 μL/well and 0.3 μL/well compound plates, respectively. • Cell plate containing 200 μL/well suspension was incubated at 37° C. in a humidified incubator with 5% CO2. • From each well of the 150 μL/well cell assay plate, 100 μL were harvested and transferred into a 96-well Optiplate (Perkin Elmer, Cat. n. 6005290) and cell viability was measured as described in 4.3 paragraphs (T0).
(§16) After four days in culture (T4) 150 μL/well of fresh medium were added into a new 0.3 μL/well copy compound plate. • From each well of the 200 μL/well cell assay plate: • 100 μL were sampled for the cell viability measurement as described in 4.3 paragraphs (T4). • 50 μL were harvested and added to the 150 μL/well compound plate prepared as described in the first point to dilute 1:4 the cell suspension. • The cell assay plate diluted and containing 200 μL/well suspension were incubated at 37° C. in a humidified incubator with 5% Co2.
(§17) At T7-T11-T14 it was proceeded as described in T4, with the exception that no further cell dilution was carried out at T14.
(§18) Plates containing the samples to be tested were equilibrated at room temperature for approximately 30 min and then 30 μL/well of the Promega CellTiterGlo® reagent were added.
(§19) Contents will be mixed for 5 min on an orbital shaker to induce cell lysis and then incubated at room temperature for an additional 10 min to stabilize the luminescent signal.
(§20) Luminescence was read by using VictorV (Perkin Elmer) multilabel plate reader using the standard protocol for luminescence in 96 well plate.
as §11
(§21) CRCs were analysed by GraphPad and IC50 values were calculated by non-linear regression using 4 parameter-logistic equation. IC50 (μM) values were reported in the final data table.
(§22) The curve fittings were performed leaving free all the parameters. Any constrain were reported in the results table.

HL-60 [2] = experiment: Proliferation study, CellTiterGlo, 4 days (Example 102), HL-60; type: cell-based; settings: HL-60, 4 days treatment
Description: as §1, §2, §3, §4, §5, §6, §7, §8, §9, §10, §11, §12

MOLM-13 (MLL-AF9) [3] = experiment: LTP assay, CellTiterGlo, T4-T14 (Example 103), MOLM-13; type: cell-based, human; settings: for inhibition of cell viability (in words): MOLM-13, LTP assay; for IC50: Homo sapiens
Description: as §13, §14, §15, §16, §17, §18, §19, §20, §11, §21, §22

MV4-11 (MLL-AF4) [4] = experiment: Proliferation study, CellTiterGlo, 4 days (Example 102), MV4-11; type: cell-based, human; settings: MV4-11, 4 days treatment
Description: as §1, §2, §3, §4, §5, §6, §7, §8, §9, §10, §11, §12

MV4-11 (MLL-AF4) [5] = experiment: LTP assay, CellTiterGlo, T4-T14 (Example 103), MV4-11; type: cell-based, human; settings: for inhibition of cell viability (in words): MV4-11, LTP assay; for IC50: Homo sapiens
Description: as §13, §14, §15, §16, §17, §18, §19, §20, §11, §21, §22

HL-60 [6] = experiment: LTP assay, CellTiterGlo, T4-T14 (Example 103), HL-60; type: cell-based; settings: for inhibition of cell viability (in words): HL-60, LTP assay
Description: as §13, §14, §15, §16, §17, §18, §19, §20, §11, §21, §22

[7] = RS4-11, 96 h, RS4-11 (MLL-AF4), T4 (Day 4), read-out: IC50 T4 (Day 4)
[8] = RS4-11, RS4-11 (MLL-AF4), T7, read-out: IC50 T7
[9] = RS4-11, RS4-11 (MLL-AF4), T11, read-out: IC50 T11
[10] = MOLM-13, 96 h, MOLM-13 (MLL-AF9), T4 (Day 4), read-out: IC50 T4 (Day 4)
[11] = MOLM-13, MOLM-13 (MLL-AF9), T7, read-out: IC50 T7
[12] = MOLM-13, MOLM-13 (MLL-AF9), T11, read-out: IC50 T11
[13] = MOLM-13, MOLM-13 (MLL-AF9), T14, read-out: IC50 T14
[14] = MV4-11, 96 h, MV4-11 (MLL-AF4), T4 (Day 4), read-out: IC50 T4 (Day 4)
[15] = MV4-11, MV4-11 (MLL-AF4), T7, read-out: IC50 T7
[16] = MV4-11, MV4-11 (MLL-AF4), T11, read-out: IC50 T11
[17] = MV4-11, MV4-11 (MLL-AF4), T14, read-out: IC50 T14
[18] = Homo sapiens, HL-60, 96 h, HL-60, T4 (Day 4), read-out: IC50 T4 (Day 4)
[19] = Homo sapiens, HL-60, HL-60, T7, read-out: IC50 T7
[20] = Homo sapiens, HL-60, HL-60, T11, read-out: IC50 T11
[21] = Homo sapiens, HL-60, HL-60, T14, read-out: IC50 T14

Compound | inhibition of cell viability (in words) (RS4-11 (MLL-AF4)) | inhibition of cell viability (in words) (MOLM-13 (MLL-AF9) [3]) | inhibition of cell viability (in words) (MV4-11 (MLL-AF4) [5]) | inhibition of cell viability (in words) (HL-60 [6]) | IC50 (RS4-11 (MLL-AF4); [7]) | IC50 (RS4-11 (MLL-AF4); [8]) | IC50 (RS4-11 (MLL-AF4); [9]) | IC50 (MOLM-13 (MLL-AF9) [3]; [10]) | IC50 (MOLM-13 (MLL-AF9) [3]; [11]) | IC50 (MOLM-13 (MLL-AF9) [3]; [12]) | IC50 (MOLM-13 (MLL-AF9) [3]; [13]) | IC50 (MV4-11 (MLL-AF4) [5]; [14]) | IC50 (MV4-11 (MLL-AF4) [5]; [15]) | IC50 (MV4-11 (MLL-AF4) [5]; [16]) | IC50 (MV4-11 (MLL-AF4) [5]; [17]) | IC50 (HL-60 [6]; [18]) | IC50 (HL-60 [6]; [19]) | IC50 (HL-60 [6]; [20]) | IC50 (HL-60 [6]; [21]) | also measured
Cc1c(CN2CCC(Nc3ncnc4sc(CC(F)(F)F)cc34)CC2)ccc2c1cc(C#N)n2Cc1cn[nH]c1 [MI-503, reference compound] | fully inhibited cell viability | fully inhibited cell viability | fully inhibited cell viability | fully inhibited cell viability | – | – | – | – | – | – | – | – | – | – | – | – | – | – | – | MOLM-13 (MLL-AF9) pIC50 (MOLM-13 (MLL-AF9) [1]; CellTiterGlo): 6.63; IC50 (MOLM-13 (MLL-AF9) [1]; CellTiterGlo, read-out: MOLM-13 (MLL-AF9) IC50): 230 nM; MOLM-13 (MLL-AF9) % max (MOLM-13 (MLL-AF9) [1]; maximal inhibition): 98%; HL-60 pIC50 (HL-60 [2]; CellTiterGlo): 6.38; IC50 (HL-60 [2]; CellTiterGlo, read-out: HL-60 IC50): 420 nM; HL-60 % max (HL-60 [2]; maximal inhibition): 103%; MV4-11 (MLL-AF4) pIC50 (MV4-11 (MLL-AF4) [4]; CellTiterGlo): 6.73; IC50 (MV4-11 (MLL-AF4) [4]; CellTiterGlo, read-out: MV4-11 (MLL-AF4) IC50): 190 nM; MV4-11 (MLL-AF4) % max (MV4-11 (MLL-AF4) [4]; maximal inhibition): 100%
Cc1nccc2[nH]c(-c3ccc(NC(=O)Cc4cc(-c5cccnc5)n[nH]4)cc3)nc12 [Compound 33] | – | – | – | – | > 5000 nM | > 5000 nM | > 5000 nM | > 5000 nM | > 5000 nM | > 5000 nM | > 5000 nM | > 5000 nM | > 5000 nM | 3310 nM | 2340 nM | > 5000 nM | > 5000 nM | > 5000 nM | > 5000 nM | –
O=C(Nc1ccc(-c2nc3c(N4CCOCC4)nccc3[nH]2)cc1)Nc1cc(-c2cccnc2)n[nH]1 [Compound 19, 1-{4-[4-(morpholin-4-yl)-1H-imidazo[4,5-c]pyridin-2-yl]phenyl}-3-[3-(pyridin-3-yl)-1Hpyrazol-5-yl]urea] | fully inhibits the cell viability | fully inhibits the cell viability | fully inhibits the cell viability | fully inhibits the cell viability | 1620 nM | 1550 nM | > 5000 nM | 830 nM | 740 nM | 780 nM | 1320 nM | 1290 nM | 1410 nM | 50 nM | 80 nM | 1550 nM | 870 nM | 650 nM | 590 nM | IC50 (HL-60 [6]; HL-60, T7, read-out: IC50 T7): 871 nM
